Results as given in patent publication US11236055B2 (Venenum Biodesign, LLC, priority 2016, dated 2022).

What was measured:
Assay type in all cases: cell-based
[1] = target: T1, human TGR5 receptor (Homo sapiens, UniProt Q8TDU6); assay: Human TGR5 cAMP production assay; settings: human TGR5, luminescent cAMP assay; coded A-D; read-out: Human TGR5 Lum. cAMP Activity (EC50)
T1 construct: host or cells: CHO-K1 (hTGR5-CHO cells)
T1 sequence (Q8TDU6 1-330): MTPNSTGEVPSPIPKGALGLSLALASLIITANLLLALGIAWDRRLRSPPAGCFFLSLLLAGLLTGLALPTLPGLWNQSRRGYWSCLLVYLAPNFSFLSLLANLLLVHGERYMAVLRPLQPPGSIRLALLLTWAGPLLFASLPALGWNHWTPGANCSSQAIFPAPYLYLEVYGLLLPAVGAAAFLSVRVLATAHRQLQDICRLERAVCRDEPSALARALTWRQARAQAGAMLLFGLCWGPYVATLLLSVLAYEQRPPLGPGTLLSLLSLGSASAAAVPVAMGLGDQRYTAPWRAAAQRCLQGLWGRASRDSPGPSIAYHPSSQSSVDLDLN
In short: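 CHO-K1 cells stably expressing human TGR5, with IBMX and cAMP antibody, were exposed to half-log serially diluted compound for 1 h at room temperature. cAMP measured by enzyme-fragment complementation luminescence (XS+ kit) after overnight incubation; EC50 values reported.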

[2] = target: T2, mouse TGR5 receptor (Mus musculus, UniProt Q80SS6); assay: Mouse TGR5 cAMP production assay (luminescent, DiscoveRx cAMP XS+); settings: HEK293-EBNA cells overexpressing mouse TGR5, luminescent cAMP XS+; coded A-D; read-out: Mouse TGR5 Lum. cAMP Activity (EC50)
T2 construct: expressed in transfected cells; host or cells: HEK293-EBNA (293 c18, ATCC CRL10852), Hygromycin B selection
T2 sequence (Q80SS6 1-329): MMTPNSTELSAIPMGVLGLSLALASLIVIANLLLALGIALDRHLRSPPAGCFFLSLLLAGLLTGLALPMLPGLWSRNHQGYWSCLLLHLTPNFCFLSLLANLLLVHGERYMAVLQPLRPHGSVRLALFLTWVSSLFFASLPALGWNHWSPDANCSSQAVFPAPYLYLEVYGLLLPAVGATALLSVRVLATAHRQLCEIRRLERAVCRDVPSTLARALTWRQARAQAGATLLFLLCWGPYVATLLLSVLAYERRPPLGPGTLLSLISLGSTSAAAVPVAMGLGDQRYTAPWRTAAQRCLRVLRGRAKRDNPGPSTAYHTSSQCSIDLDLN
Description: Mouse TGR5 cAMP Production Assay
We evaluated compounds of the present invention for their ability to induce cAMP production in HEK-EBNA cells overexpressing the mouse TGR5 receptor. Human embryonic kidney cells (HEK293-EBNA) stably expressing mouse TGR5 receptor were established using the following procedure. Specifically, a commercially-obtained gene encoding mouse TGR5 (accession number BC116914) from Thermo Scientific (Waltham, Mass.) was cloned into an episomal expression vector. The resulting expression plasmid was then transfected into 293 c18 (ATCC® CRL10852™) cells, which express the Epstein-Barr virus nuclear antigen EBNA1 and can support the replication of episomal vectors. Selection for the plasmid was maintained with Hygromycin B. Cells were cultured and maintained in DMEM (Sigma; cat #6429) supplemented with 10% Fetal Bovine Serum, 1% penicillin/streptomycin, 2 mM L-alanine L-glutamine (GlutaMax), and 250 μg/mL Hygromycin.
Two cAMP production assays were developed.
1. Luminescent cAMP Production Assay
In this first cAMP production assay, the cAMP production was measured using DiscoveRx's cAMP XS+ kit following the manufacturer's recommended protocol.
Briefly, HEK293-EBNA cells stably overexpressing mouse TGR5 were harvested using non-enzymatic cell dissociation buffer (Sigma-Aldrich, St. Louis, Mo.), spun down, then resuspended in serum-free DMEM with 500 μM IBMX at a density of 1.25×10^6 cells/mL. 500 μL of cAMP antibody solution was added to […] of cell suspension and incubated at room temperature for 20 min.
Test compounds were serially diluted (half-log dilutions) in DMSO and then further diluted 1:50 in PBS, 10 mM HEPES buffer. 2 μL of serially diluted compound was added to a 384-well low volume plate (Greiner cat #784075) and centrifuged briefly. 2 μL of the cell/cAMP antibody mixture was then added to each compound-containing well and allowed to incubate at room temperature for one (1) hour. Following incubation, the XS+ kits' ED/Lysis/CL Substrate Working Solution was prepared following the manufacturer's recommended protocol and 4 μL was added to each well of the plate. The plate was then incubated for one (1) hour at room temperature. Following incubation, 4 μL of (Enzyme Acceptor) EA reagent was added to the plate and allowed to incubate overnight at room temperature. Luminescent signal was then detected using the Viewlux instrument (Perkin-Elmer, Waltham, Mass.).
In Table 33, EC50 values for both human and mouse cells were determined according to the TGR5 cAMP assays described above.

[3] = target: T2, mouse TGR5 receptor; assay: Mouse TGR5 cAMP production assay (HTRF, Cisbio cAMP HiRange); settings: HEK293-EBNA cells overexpressing mouse TGR5, HTRF cAMP HiRange; coded A-D
In short: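 cAMP read by HTRF competition after 1 h room-temperature compound exposure of mouse TGR5-overexpressing HEK293-EBNA cells. Cells were suspended in serum-free DMEM containing 500 μM IBMX; compounds ran as 12-point half-log dilutions in duplicate; EC50 derived.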

| EC50 [1] | EC50 [2] | EC50 [3] | Compound |
| --- | --- | --- | --- |
| 1 to 30 µM | > 30 µM |  | O=S(=O)(NCc1cccc(-c2cc(C(F)(F)F)ncn2)c1)c1cccc(C(F)(F)F)c1 [Compound 1BJ] |
| 1 to 30 µM | > 30 µM |  | O=S(=O)(NCc1cccc(-c2ccncc2)c1)c1ccccc1F [Compound 2AS] |
| 1 to 30 µM | > 30 µM |  | CC(C)(NS(=O)(=O)c1cccc(C(F)(F)F)c1)c1cccc(-c2ccnc(C(F)(F)F)c2)c1 [Compound 1AH] |
| < 0.1 µM | 0.1 to 0.999 µM |  | CCc1cnccc1-c1cccc(C(C)(C)NS(=O)(=O)c2cccc(C(F)(F)F)c2)c1 [Compound 5AB, N-(2-(3-(3-ethylpyridin-4-yl)phenyl)propan-2-yl)-3-(trifluoromethyl)benzenesulfonamide] |
| 1 to 30 µM | > 30 µM |  | Cc1noc(C)c1-c1cccc(CNS(=O)(=O)c2ccc(F)c(C(F)(F)F)c2)c1 [Compound 2AE] |
| 1 to 30 µM | > 30 µM |  | Cc1noc(C)c1-c1cccc(CNS(=O)(=O)c2cc(C(F)(F)F)cc(C(F)(F)F)c2)c1 [Compound 2AH] |
| < 0.1 µM | 1 to 30 µM |  | CC(C)(NS(=O)(=O)c1cccc(C(F)(F)F)c1)c1cccc(-c2ccncc2)c1 [Compound 1AD] |
| 0.1 to 0.999 µM | 1 to 30 µM |  | CC(C)(NS(=O)(=O)c1cccc(C(F)(F)F)c1)c1cccc(-c2ccnc(Cl)c2)c1 [Compound 1AG] |
| 1 to 30 µM | > 30 µM |  | O=S(=O)(NCc1ccc(Cl)c(-c2ccncc2)c1)c1cccc(C(F)(F)F)c1 [Compound 1BU] |
| 0.1 to 0.999 µM | 0.1 to 0.999 µM |  | C[C@H](NS(=O)(=O)c1cccc(C(F)(F)F)c1)c1cccc(-c2ccncc2Cl)c1 [Compound 1AX] |
| 0.1 to 0.999 µM | 0.1 to 0.999 µM |  | COc1cnccc1-c1cccc(C(C)(C)NS(=O)(=O)c2cccc(Cl)c2)c1 [Compound 2AY] |
| 1 to 30 µM | 1 to 30 µM |  | O=S(=O)(NCc1ccc(F)c(-c2ccncc2Cl)c1)c1cccc(C(F)(F)F)c1 [Compound 1AT] |
| 0.1 to 0.999 µM | 0.1 to 0.999 µM |  | COc1cnccc1-c1cccc([C@@H](C)NS(=O)(=O)c2cccc(C(F)(F)F)c2)c1 [Compound 1BE] |
| 0.1 to 0.999 µM | 1 to 30 µM |  | CC(C)(NS(=O)(=O)c1cccc(C(F)(F)F)c1)c1cccc(-c2ccncc2O)c1 [Compound 1AN] |
| 0.1 to 0.999 µM | 1 to 30 µM |  | C[C@H](NS(=O)(=O)c1cccc(C(F)(F)F)c1)c1cccc(-c2ccncc2F)c1 [Compound 1AY] |
| 1 to 30 µM | > 30 µM |  | Cc1noc(C)c1-c1cccc(CNS(=O)(=O)c2ccc(Cl)cc2)c1 [Compound 1AB] |
| 0.1 to 0.999 µM | 0.1 to 0.999 µM |  | COc1cnccc1-c1cccc(C(C)(C)NS(=O)(=O)c2cccc(C)c2)c1 [Compound 2AZ] |

| EC50 [1] | EC50 [2] | EC50 [3] | Compound |
| --- | --- | --- | --- |
| 0.1 to 0.999 µM | 1 to 30 µM |  | COc1cnccc1-c1cccc(C(C)(C)NS(=O)(=O)c2cccc(Br)c2)c1 [Compound 2AT] |
| 1 to 30 µM | 1 to 30 µM |  | O=S(=O)(NCc1cccc(-c2ccncc2C(F)(F)F)c1)c1cccc(C(F)(F)F)c1 [Compound 1BH] |
| 1 to 30 µM | 1 to 30 µM |  | Cc1cccc(S(=O)(=O)NCc2cccc(-c3ccncc3)c2)c1 [Compound 2AI] |
| 0.1 to 0.999 µM | 1 to 30 µM |  | C[C@H](NS(=O)(=O)c1cccc(Br)c1)c1cccc(-c2ccncc2Cl)c1 [Compound 2BR] |
| 1 to 30 µM | 1 to 30 µM |  | O=S(=O)(NCc1cccc(-c2ccncc2)c1)c1ccccc1C(F)(F)F [Compound 2AM] |
| < 0.1 µM | 0.1 to 0.999 µM |  | Cc1cnccc1-c1cccc([C@H](C)NS(=O)(=O)c2cccc(C(F)(F)F)c2)c1 [Compound 5AG, (S)-N-(1-(3-(3-methylpyridin-4-yl)phenyl)ethyl)-3-(trifluoromethyl)benzenesulfonamide] |
| 1 to 30 µM | > 30 µM |  | Cc1cc(-c2cccc(CNS(=O)(=O)c3cccc(C(F)(F)F)c3)c2)ncn1 [Compound 1BI] |
| 0.1 to 0.999 µM | 1 to 30 µM |  | C[C@@H](NS(=O)(=O)c1cccc(C(F)(F)F)c1)c1cccc(-c2ccncc2)c1 [Compound 1BB] |
| < 0.1 µM | 0.1 to 0.999 µM |  | Cc1cnccc1-c1cccc(C(C)(C)NS(=O)(=O)c2ccccc2C(F)(F)F)c1 [Compound 5AI, N-(2-(3-(3-methylpyridin-4-yl)phenyl)propan-2-yl)-2-(trifluoromethyl)benzenesulfonamide] |
| 1 to 30 µM | > 30 µM |  | Cc1ccccc1S(=O)(=O)NCc1cccc(-c2ccncc2)c1 [Compound 2AP] |
| 0.1 to 0.999 µM | 1 to 30 µM |  | COCCOc1cnccc1-c1cccc(C(C)(C)NS(=O)(=O)c2cccc(C(F)(F)F)c2)c1 [Compound 8, N-(2-(3-(3-(2-methoxyethoxy)pyridin-4-yl)phenyl)propan-2-yl)-3-(trifluoromethyl)benzenesulfonamide] |
| 1 to 30 µM | 1 to 30 µM |  | CC(C)(NS(=O)(=O)c1cccc(C(F)(F)F)c1)c1cccc(-c2ccnc3ccccc23)c1 [Compound 1AJ] |
| 1 to 30 µM | 1 to 30 µM |  | O=S(=O)(NCc1cccc(-c2ccncc2)c1)c1cccc(Cl)c1 [Compound 2AJ] |
| < 0.1 µM |  | < 0.1 µM | CCc1cnccc1-c1cccc([C@H](C)N(CCCCNS(=O)(=O)CCC(=O)O)S(=O)(=O)c2cccc(Cl)c2C)c1 [Compound 26AE, (S)-3-(N-(4-(3-chloro-N-(1-(3-(3-ethylpyridin-4-yl)phenyl)ethyl)-2-methylphenylsulfonamido)butyl)sulfamoyl)propanoic acid] |
| < 0.1 µM |  | 0.1 to 0.999 µM | Cc1cnccc1-c1cccc([C@H](C)N(CCCC(=O)NCCS(=O)(=O)NCC(=O)O)S(=O)(=O)c2ccccc2C)c1 [Compound 20AX, (S)-2-(4-(2-methyl-N-(1-(3-(3-methylpyridin-4-yl)phenyl)ethyl)phenylsulfonamido)butanamidoethylsulfonamido)acetate] |
| < 0.1 µM |  | 1 to 30 µM | Cc1cnccc1-c1cccc([C@@H](C)N(CCCC(=O)NCCS(=O)(=O)O)S(=O)(=O)c2cccc(Cl)c2C)c1 [Compound 21AP, (R)-2-(4-(3-Chloro-2-methyl-N-(1-(3-(3-methylpyridin-4-yl)phenyl)ethyl)phenylsulfonamido)butanamido)ethane-sulfonic acid] |
| < 0.1 µM |  | 0.1 to 0.999 µM | Cc1cnccc1-c1cccc(C(C)N(CCCNc2c(NCS(=O)(=O)O)c(=O)c2=O)S(=O)(=O)c2cccc(Cl)c2C)c1 (centres unmarked) [Compound 32AA, ((2-((3-(3-chloro-2-methyl-N-(1-(3-(3-methylpyridin-4-yl)phenyl)ethyl)phenylsulfonamido)propyl)amino)-3,4-dioxocyclobut-1-en-1-yl)amino)methanesulfonic acid] |
